Source: PubChem BioAssay (NCI)
“And” between values parts separate entries of the source, which are not always exact repeats. Equal values may be shown once.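 Briefly, cells in 96-well plates were exposed to five compound concentrations for 48 h, and endpoints were estimated by linear interpolation. GI50: concentration for 50% inhibition of growth. TGI marks complete inhibition of growth.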

Legend:
Test in all cases: growth of human tumour cells (NCI), 48 h
HT29 colon = system: HT29 colon
SNB-75 CNS = system: SNB-75 CNS
LOX IMVI melanoma = system: LOX IMVI melanoma
HL-60(TB) leukemia = system: HL-60(TB) leukemia
M14 melanoma = system: M14 melanoma
EKVX NSCLC = system: EKVX NSCLC
OVCAR-5 ovarian = system: OVCAR-5 ovarian
CAKI-1 renal = system: CAKI-1 renal
A498 renal = system: A498 renal
K-562 leukemia = system: K-562 leukemia

Structure (SMILES)	GI50 (HT29 colon)	TGI (HT29 colon)	GI50 (SNB-75 CNS)	TGI (SNB-75 CNS)	GI50 (LOX IMVI melanoma)	TGI (LOX IMVI melanoma)	GI50 (HL-60(TB) leukemia)	TGI (HL-60(TB) leukemia)	GI50 (M14 melanoma)	TGI (M14 melanoma)	GI50 (EKVX NSCLC) [µM]	TGI (EKVX NSCLC)	GI50 (OVCAR-5 ovarian)	TGI (OVCAR-5 ovarian)	TGI (CAKI-1 renal)	GI50 (A498 renal) [µM]	TGI (A498 renal)	GI50 (K-562 leukemia)	GI50 (CAKI-1 renal) [µM]	TGI (K-562 leukemia)
CC[C@H]1CN2CCc3cc(OC)c(OC)cc3[C@@H]2C[C@@H]1C[C@H]1NCCc2c1[nH]c1ccc(O)cc21	0.0271 µM and 0.0332 µM	0.0862 µM and 0.341 µM and 0.11 µM	0.032 µM and 0.0223 µM	0.111 µM and 0.0732 µM and 0.0544 µM	0.00434 µM and 0.0207 µM	0.0223 µM and 0.0902 µM and < 0.0107 µM	0.0296 µM and 0.025 µM	0.0955 µM and 0.0514 µM and 0.0353 µM	0.0365 µM and 0.0275 µM	0.162 µM and 0.0729 µM and 0.0478 µM	0.0409	0.401 µM and 0.125 µM	0.0246 µM and 0.0401 µM	0.091 µM and 0.335 µM and 0.379 µM	0.614 µM and 0.68 µM	0.191	0.136 µM and 0.507 µM and 0.223 µM	0.0263 µM and 0.0353 µM	–	–
C1=C\COCc2cc(ccc2OCCN2CCCC2)Nc2nccc(n2)-c2cccc(c2)COC/1	1.18 µM	5.04 µM	1.64 µM	4.75 µM	0.847 µM	2.88 µM	1.28 µM	4.79 µM	1.75 µM	4.72 µM	2.76	7.73 µM	1.16 µM	5.38 µM	4.15 µM	1.86	5.32 µM	0.933 µM	0.971	3.65 µM
OCc1ccn2c1[C@@H](O)CC2	–	> 100 µM	–	> 100 µM	–	> 100 µM	–	> 100 µM	–	> 100 µM	–	> 100 µM	–	> 100 µM	> 100 µM	–	> 100 µM	–	–	> 100 µM
C=C1C(=O)O[C@H]2[C@H]1CC/C(COC(=O)/C=C\C(=O)NCc1ccc(Cn3c(=O)sn(CCCC)c3=O)cc1)=C\CC[C@@]1(C)O[C@@H]21	0.472 µM	2.07 µM	0.697 µM	2.19 µM	0.179 µM	0.379 µM	0.396 µM	1.77 µM	0.678 µM	2.06 µM	1.48	2.85 µM	1.33 µM	2.75 µM	1.48 µM	1.18	2.44 µM	0.316 µM	0.328	4.82 µM
CC(=O)Oc1ccccc1C(=O)Nc1ncc([N+](=O)[O-])s1	3.37 µM	13.5 µM and 97.5 µM	1.6 µM	7.13 µM and > 67.9 µM	2.74 µM	14.5 µM and > 100 µM	1.77 µM	4.24 µM	2.54 µM	7.23 µM and 55.9 µM	2.66	> 100 µM	4.07 µM	> 100 µM	> 100 µM	0.245	–	2.53 µM	2.64	18.8 µM and > 100 µM
COC(=O)/C=C/c1c(CC=C(C)C)ncn1C	–	> 100 µM	–	56 µM	–	> 100 µM	–	31.6 µM	–	> 100 µM	–	> 100 µM	–	> 100 µM	> 100 µM	–	> 100 µM	–	–	> 100 µM
CNS(=O)(=O)NNS(=O)(=O)c1ccc(Br)cc1	–	> 100 µM	–	> 100 µM	–	> 100 µM	–	> 100 µM	–	> 100 µM	–	> 100 µM	–	> 100 µM	> 100 µM	–	> 100 µM	–	–	> 100 µM
CCOc1ccncc1[N+](=O)[O-]	–	> 100 µM	–	> 100 µM	–	> 100 µM	–	> 100 µM	–	> 100 µM	–	> 100 µM	–	> 100 µM	> 100 µM	–	> 100 µM	–	–	> 100 µM
N#CC1=C(N)Oc2cc(O)ccc2C1c1cccc2ccccc12 (configuration not stated)	8.89 µM	27 µM	14.1 µM	32.9 µM	14.8 µM	35.4 µM	3.16 µM	11.7 µM	5.72 µM	21.6 µM	17	> 100 µM	14.6 µM	28.8 µM	27 µM	5.25	22.7 µM	3.68 µM	8.55	17 µM
O=C1NC(=O)/C(=C\c2ccccc2)C2=C1CCCC2	14.9 µM	44.1 µM	11.9 µM	24.7 µM	1.85 µM	4.06 µM	3.25 µM	12.5 µM	3.72 µM	12.8 µM	14.3	29.5 µM	3.53 µM	12 µM	17.3 µM	12.9	26.1 µM	5.39 µM	5.63	> 40.3 µM
CCOP(=O)(OCC)OC1C=CC2CCC1C2 (configuration not stated)	–	> 100 µM	–	> 100 µM	–	> 100 µM	–	> 100 µM	–	> 100 µM	–	> 100 µM	–	> 100 µM	> 100 µM	–	> 100 µM	–	–	> 100 µM
N#CC(C(=O)C(=O)Nc1ccc(Cl)cc1)c1ccccc1 (configuration not stated)	–	> 100 µM	–	> 100 µM	–	> 100 µM	–	> 100 µM	–	> 100 µM	–	> 100 µM	–	> 100 µM	> 100 µM	–	> 100 µM	–	–	> 100 µM
